Laboratory results published in patent US10450335B2, “Antiviral oxime phosphoramide compounds” (Merck Sharp & Dohme Corp., priority 2015, dated 2019).
Like-named read-outs stand apart in the source and are kept apart here.

How the values were obtained:
[1] = Prodrug stability assay in bio-relevant media (FaSSIF with Pancreatin, GI tract stability); type: in vitro ADME; details: HPLC peak area of prodrug at 5 h / 0 h, 0.5 mg/mL Pancreatin in FaSSIF, 37° C.
Method: Prodrug Stability Assay in Bio-Relevant Media
The following assay was employed to evaluate the stability of the prodrugs in simulated gastrointestinal tract conditions. Preparation of fasted state simulated intestinal fluid (FaSSIF) using Phares SIF Powder was carried out according to protocols from Phare Drug Delivery AG (Baselland, Switzerland). For sample preparation, 10 μL stock solutions (10 mM) of prodrug substance in DMSO was added to 990 μL of 0.5 mg/mL Pancreatin solution (Fisher CAS#8049-47-6) in FaSSIF. Two samples were prepared for each compound. If the sample was a clear solution, it was directly analyzed by HPLC. If the sample was not clear, the sample was […] at 37° C. and observed 5 h later. If the sample was clear, HPLC analysis was directly performed. If the sample was still not clear, the sample was diluted with 100% ACN and assayed by HPLC. All the samples were vortexed for 3 min and observed before injection. For the diluted samples, the area is multiplied by a dilution factor when the data is analyzed. The analysis was carried out with an Agilent 1100 series HPLC with autosampler. The column was a Poroshell 120 EC-C18, 4.6×50 mm, […]. The flow rate was 1.8 mL/min, and the injection volume was 5 or 10 μL. UV detection was in the range 210-400 nm. The mobile phase consisted of solvent A (water plus 10 mM tetrabutylammonium bromide) and solvent B (acetonitrile) with a gradient of: 90% solvent A at 0 min, changing to 95% solvent B over 6 min, maintaining for 1.5 min, then reverting to 90% solvent A over 1.6 min. The HPLC peak area of the prodrug at 5 h was divided by the HPLC peak area of the prodrug at 0 h, to generate the % claimed parent ratio, which is summarized in Table 2 for gastrointestinal (GI) Tract stability.

HIV-1 (H9/IIIB strain) = experiment: Viking assay: antiviral potency in a multiple round HIV-1 infection assay in MT4-GFP cells; type: cell-based; details: MT4-GFP cells infected with HIV-1 H9/IIIB, inhibition of reproductive ratio R0
Method: Assessing Antiviral Potency in a Multiple Round HIV-1 Infection Assay (Viking Assay)
The antiviral activity of the tenofovir prodrugs of the Examples herein was assessed in an assay that measures the rate of replication of HIV in cell culture, termed the Viking assay (VIral KINetics in Green cells) and performed as follows. HIV-1 replication was monitored using MT4-gag-GFP clone D3 (hereafter designated MT4-GFP), which are MT-4 cells modified to harbor a GFP reporter gene, the expression of which is dependent on the HIV-1 expressed proteins tat and rev. Productive infection of an MT4-GFP cell with HIV-1 results in GFP expression approximately 24 h post-infection. MT4-GFP cells were maintained at 37° C./5% CO2/90% relative humidity in RPMI 1640 supplemented with 10% fetal bovine serum, 100 U/ml penicillin/streptomycin, and 400 μg/ml G418 to maintain the reporter gene. For infections, MT4-GFP cells were placed in the same medium lacking G418 and infected overnight with HIV-1 (H9/IIIB strain) virus at an approximate multiplicity of infection of 0.01 in the same incubation conditions. Cells were then washed and re-suspended in either RPMI 1640 supplemented with 10% or 50% normal human serum (NHS) at 1.6×10^5 cells/mL (10% NHS or 50% NHS, respectively). Compound plates were prepared by dispensing compounds dissolved in DMSO into wells of 384 well poly-D-lysine-coated plates (0.2 μl/well) using an ECHO acoustic dispenser. Each compound was tested in a 10-point serial 3-fold dilution (typical final concentrations: 8.4 μM-0.42 nM). Controls included no inhibitor (DMSO only) and a combination of three antiviral agents (efavirenz, indinavir, an in-house integrase strand transfer inhibitor at final concentrations of 4 μM each). Cells were added (50 μL/well) to compound plates and the infected cells were maintained at 37° C./5% CO2/90% relative humidity.
Infected cells were quantified at two time points, ˜48 h and ˜72 h post-infection, by counting the number of green cells in each well using an Acumen eX3 scanner. The increase in the number of green cells over ˜24 h period gives the reproductive ratio, R0, which is typically 5-15 and has been shown experimentally to be in logarithmic phase (data not shown). Inhibition of R0 is calculated for each well, and IC50s determined by non-linear 4-parameter curve fitting.

[2] = Human immunodeficiency virus 1, IIIB, 10% normal human serum, read-out: Viking, IC50 (10% NHS)
[3] = Human immunodeficiency virus 1, IIIB, 50% normal human serum, read-out: Viking, IC50 (50% NHS)

GI Tract stability [1] [%] | Compound | IC50 (HIV-1 (H9/IIIB strain); [2]) [nM] | IC50 (HIV-1 (H9/IIIB strain); [3]) [nM] | also measured
98.1 | CC(C)=NOP(=O)(CO[C@H](C)Cn1cnc2c(N)ncnc21)NC(C)(C)C(=O)OC(C)C (stereo partly drawn) [Example 22, isopropyl 2-(((R)-((((R)-1-(6-amino-9H-purin-9-yl)propan-2-yl)oxy)methyl)((propan-2-ylideneamino)oxy)phosphoryl)amino)-2-methylpropanoate; and isopropyl 2-(((S)-((((R)-1-(6-amino-9H-purin-9-yl)propan-2-yl)oxy)methyl)((propan-2-ylideneamino)oxy)phosphonyl)amino)-2-methylpropanoate] | – | – | –
– | CCC(CC)=NOP(=O)(CO[C@H](C)Cn1cnc2c(N)ncnc21)N[C@@H](C)C(=O)OC(C)C (stereo partly drawn) [Example 7, isopropyl (((((R)-1-(6-amino-9H-purin-9-yl)propan-2-yl)oxy)methyl)((pentan-3-ylideneamino)oxy)phosphoryl)-L-alaninate] | 28.2 | 84.7 | –
– | CC(C)OC(=O)[C@H](C)NP(=O)(CO[C@H](C)Cn1cnc2c(N)ncnc21)ON=C1CCOCC1 (stereo partly drawn) [Example 9, isopropyl (((((R)-1-(6-amino-9H-purin-9-yl)propan-2-yl)oxy)methyl)(((tetrahydro-4H-pyran-4-ylidene)amino)oxy)phosphoryl)-L-alaninate] | 165 | 360 | –
– | CC(C)=NOP(=O)(CO[C@H](C)Cn1cnc2c(N)ncnc21)N[C@@H](C)C(=O)OCc1ccccc1 (stereo partly drawn) [Example 5, benzyl (((R)-(((R)-1-(6-amino-9H-purin-9-yl)propan-2-yl)oxy)methyl)((propan-2-ylideneamino)oxy)phosphoryl)-L-alaninate; and benzyl (((S)-(((R)-1-(6-amino-9H-purin-9-yl)propan-2-yl)oxy)methyl)((propan-2-ylideneamino)oxy)phosphoryl)-L-alaninate] | 21.3 | 115 | IC50 (HIV-1 (H9/IIIB strain); 10% normal human serum, read-out: Viking, IC50 (10% NHS)): 15.2 nM; IC50 (HIV-1 (H9/IIIB strain); 50% normal human serum, read-out: Viking, IC50 (50% NHS)): 67 nM
– | CC(C)OC(=O)[C@H](C)NP(=O)(CO[C@H](C)Cn1cnc2c(N)ncnc21)ON=C1CCN(Cc2ccccc2)CC1 (stereo partly drawn) [Example 11, isopropyl (((((R)-1-(6-amino-9H-purin-9-yl)propan-2-yl)oxy)methyl)(((1-benzylpiperidin-4-ylidene)amino)oxy)phosphoryl)-L-alaninate] | 14.8 | 51.7 | –
– | CC(C)OC(=O)[C@H](C)NP(=O)(CO[C@H](C)Cn1cnc2c(N)ncnc21)ON=C1CCCCC1 (stereo partly drawn) [Example 8, isopropyl (((((R)-1-(6-amino-9H-purin-9-yl)propan-2-yl)oxy)methyl)((cyclohexylideneamino)oxy)phosphoryl)-L-alaninate] | 67.7 | 92.1 | –
79.5 | C/C(=N\OP(=O)(CO[C@H](C)Cn1cnc2c(N)ncnc21)N[C@@H](C)C(=O)OC(C)C)C1CCCC1 (stereo partly drawn) [Example 21, isopropyl (((R)-(((R)-1-(6-amino-9H-purin-9-yl)propan-2-yl)oxy)methyl)((((E)-1-cyclopentylethylidene)amino)oxy)phosphoryl)-L-alaninate; and isopropyl (((S)-(((R)-1-(6-amino-9H-purin-9-yl)propan-2-yl)oxy)methyl)((((E)-1-cyclopentylethylidene)amino)oxy)phosphonyl)-L-alaninate] | – | – | –
5.6 | CC(C)CC(CC(C)C)=NOP(=O)(CO[C@H](C)Cn1cnc2c(N)ncnc21)NC(C)(C)C(=O)OC1CCC1 (mixture of isomers) [Example 32, cyclobutyl 2-(((R)-((((R)-1-(6-amino-9H-purin-9-yl)propan-2-yl)oxy)methyl)(((2,6-dimethylheptan-4-ylidene)amino)oxy)phosphoryl)amino)-2-methylpropanoate; and cyclobutyl 2-(((S)-((((R)-1-(6-amino-9H-purin-9-yl)propan-2-yl)oxy)methyl)(((2,6-dimethylheptan-4-ylidene)amino)oxy)phosphoryl)amino)-2-methylpropanoate] | – | – | –
99.3 | CC(C)OC(=O)C(C)(C)NP(=O)(CO[C@H](C)Cn1cnc2c(N)ncnc21)ON=C1CCCC1 (mixture of isomers) [Example 27, isopropyl 2-(((R)-((((R)-1-(6-amino-9H-purin-9-yl)propan-2-yl)oxy)methyl)((cyclopentylideneamino)oxy)phosphoryl)amino)-2-methylpropanoate; and isopropyl 2-(((S)-((((R)-1-(6-amino-9H-purin-9-yl)propan-2-yl)oxy)methyl)((cyclopentylideneamino)oxy)phosphoryl)amino)-2-methylpropanoate] | – | – | –
33.4 | C/C(=N\OP(=O)(CO[C@H](C)Cn1cnc2c(N)ncnc21)N[C@@H](C)C(=O)OC(C)C)C1CCCCC1 (stereo partly drawn) [Example 15, isopropyl (((R)-(((R)-1-(6-amino-9H-purin-9-yl)propan-2-yl)oxy)methyl)((((E)-1-cyclohexylethylidene)amino)oxy)phosphoryl)-L-alaninate; and isopropyl (((S)-(((R)-1-(6-amino-9H-purin-9-yl)propan-2-yl)oxy)methyl)((((E)-1-cyclohexylethylidene)amino)oxy)phosphoryl)-L-alaninate] | – | – | –
– | CC(C)OC(=O)[C@H](C)NP(=O)(CO[C@H](C)Cn1cnc2c(N)ncnc21)ON=C(C1CCCC1)C1CCCC1 (stereo partly drawn) [Example 6, isopropyl (((((R)-1-(6-amino-9H-purin-9-yl)propan-2-yl)oxy)methyl)(((dicyclopentylmethyl-ene)amino)oxy)phosphoryl)-L-alaninate] | 24.3 | 51.3 | –
– | CC(C)OC(=O)[C@H](C)NP(=O)(CO[C@H](C)Cn1cnc2c(N)ncnc21)ON=C(c1ccccc1)c1ccccc1 (stereo partly drawn) [Example 14, isopropyl (((((R)-1-(6-amino-9H-purin-9-yl)propan-2-yl)oxy)methyl)(((diphenylmethylene)amino)oxy)phosphoryl)-L-alaninate] | 18.6 | 169 | –
– | C/C(=N\OP(=O)(CO[C@H](C)Cn1cnc2c(N)ncnc21)N[C@@H](C)C(=O)OC(C)C)c1ccncc1 (stereo partly drawn) [Example 16, isopropyl (((R)-(((R)-1-(6-amino-9H-purin-9-yl)propan-2-yl)oxy)methyl)((((E)-1-(pyridin-4-yl)ethylidene)amino)oxy)phosphoryl)-L-alaninate and isopropyl; and (((S)-(((R)-1-(6-amino-9H-purin-9-yl)propan-2-yl)oxy)methyl)((((E)-1-(pyridin-4-yl)ethylidene)amino)oxy)phosphoryl)-L-alaninate] | 780 | 1140 | –

Compound | GI Tract stability [1] [%] | IC50 (HIV-1 (H9/IIIB strain); [2]) [nM] | IC50 (HIV-1 (H9/IIIB strain); [3]) [nM] | also measured
butyl 2-(((R)-((((R)-1-(6-amino-9H- purin-9-yl)propan-2- yl)oxy)methyl)((propan-2- ylideneamino)oxy)phosphoryl)amino)- 2-methylpropanoate; and butyl 2-(((S)-((((R)-1-(6-amino-9H- purin-9-yl)propan-2- yl)oxy)methyl)((propan-2- ylideneamino)oxy)phosphoryl)amino)- 2-methylpropanoate [Example 23] | 99.0 | – | – | –
